Assay [1] in a line: Luminescence Cell-Based Dose Retest to Confirm Inhibitors of Cancer Stem Cells. [Related pubchem assays (depositor defined):AID2717, AID2721]. Conditions: Homo sapiens. Format: functional.
A short description of assay [2]: cytotoxicity in HMLE control line with eGFP shRNA, dose response, counter-screen for HMLE_sh_ECad selective toxicity project, cell-based, HMLE_sh_eGFP, luminescence (AID 463074).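 Note: HMLE human mammary epithelial cells expressing control shRNA against eGFP.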 Format: functional, Homo sapiens. For orientation: The purpose of a counterscreen is to sort out artefacts and off-target activity.
The nature of assay [3]: insulin promoter down-regulators in MIN6 cells, imaging, high-content screening, mouse beta cells (AID 1628). Format: functional.
Assay [4] has as its system Streptococcus sp. 'group A'. In words: growth inhibition of control SK(-) GAS strain, dose response, counter-screen for streptokinase expression inhibitor project, luminescence, kanamycin, BacTiterGlo, confirmation (AID 1900). Format: functional, organism-based.
The nature of assay [5]: cytotoxicity in MIN6 insulinoma cells, dose response, cytotoxicity control, cell-based, mouse insulinoma (AID 2122).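 Note: confirmatory high-throughput counterscreen run to flag cytotoxic compounds; mouse MIN-6 beta cells carrying an insulin promoter eGFP reporter.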 The class given is functional.
Another assay has as its system Streptococcus. In words: Group A Streptococcus viability loss, dose response, counter-screen for streptokinase expression inhibitor project, luminescence, BacTiterGlo (AID 1915).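 Note: potency for reduction of bacterial viability or growth.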 The class given is functional, organism-based.
The subject of assay [6] is HEK293. In words: inhibitors of LMP1-driven NF-kB reporter, dose response, cell-based, HEK293, luciferase, cherry-pick (AID 588343). Format: functional. Conditions: Homo sapiens.
Assay [7] deals with Vero. In words: cells. The settings on record: Chlorocebus sabaeus. Format: functional, cell-based.
Another assay relates to INS1. The assay is described as follows: beta cell apoptosis inhibitors, cytokine rescue, dose response, luminescence, retest (AID 449756).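 Note: cell death triggered by IL-1 beta plus TNF-alpha plus IFN-gamma mixture; protective hits raise ATP signal compared with cytokine alone wells.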 The class given is functional, cell-based. The settings on record: Rattus norvegicus, INS1.
Assay [8] deals with Vero. In words: cells. Conditions: Chlorocebus sabaeus. Format: functional.
For assay [9], the system named is HEK293. In words: cells. The settings on record: Homo sapiens.
Assay [10] relates to HEK293. In words: cells. Conditions: Homo sapiens. This is another data set of the same source.
Assay [11] has as its target T1, Endoribonuclease toxin MazF (Escherichia coli K-12, UniProt P0AE70).
T1 sequence (P0AE70 whole entry): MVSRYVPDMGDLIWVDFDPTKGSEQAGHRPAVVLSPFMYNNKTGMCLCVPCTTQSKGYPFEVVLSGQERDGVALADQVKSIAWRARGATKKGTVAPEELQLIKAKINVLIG
The assay is described as follows: MazF toxin RNase activators, dose response, biochemical, fluorescence, single-stranded RNA substrate, uHTS hits (AID 588481). Format: functional.

In assay [12] the target is UDP-galactopyranose mutase (Mycobacterium tuberculosis, UniProt P9WIQ1). In words: Inhibitors of Mycobacterium tuberculosis UDP-galactopyranose mutase (UGM) enzyme Measured in Biochemical System Using Plate Reader - 2105-02_Inhibitor_Dose_CherryPick_Activity. [Related pubchem assays (depositor defined):AID504439].
Assay [13] concerns the target T1, Endoribonuclease toxin MazF. In words: fluorescent RNA oligo signal without MazF, dose response, counter-screen for MazEF activator project, biochemical, fluorescence, single-stranded RNase substrate (AID 588502). Format: functional.
The nature of assay [14]: HEp-2 cell cytotoxicity, dose response, cytotoxicity control for RSV inhibitor project, HTS (AID 2410). Format: functional. The settings on record: human respiratory syncytial virus.
The target in assay [15] is Induced myeloid leukemia cell differentiation protein Mcl-1 (Homo sapiens, UniProt Q07820). The class given is functional.
The target of assay [16] is T2, Rac GTPase-activating protein 1 (Homo sapiens, UniProt Q9H0H5).
T2 sequence (Q9H0H5 whole entry): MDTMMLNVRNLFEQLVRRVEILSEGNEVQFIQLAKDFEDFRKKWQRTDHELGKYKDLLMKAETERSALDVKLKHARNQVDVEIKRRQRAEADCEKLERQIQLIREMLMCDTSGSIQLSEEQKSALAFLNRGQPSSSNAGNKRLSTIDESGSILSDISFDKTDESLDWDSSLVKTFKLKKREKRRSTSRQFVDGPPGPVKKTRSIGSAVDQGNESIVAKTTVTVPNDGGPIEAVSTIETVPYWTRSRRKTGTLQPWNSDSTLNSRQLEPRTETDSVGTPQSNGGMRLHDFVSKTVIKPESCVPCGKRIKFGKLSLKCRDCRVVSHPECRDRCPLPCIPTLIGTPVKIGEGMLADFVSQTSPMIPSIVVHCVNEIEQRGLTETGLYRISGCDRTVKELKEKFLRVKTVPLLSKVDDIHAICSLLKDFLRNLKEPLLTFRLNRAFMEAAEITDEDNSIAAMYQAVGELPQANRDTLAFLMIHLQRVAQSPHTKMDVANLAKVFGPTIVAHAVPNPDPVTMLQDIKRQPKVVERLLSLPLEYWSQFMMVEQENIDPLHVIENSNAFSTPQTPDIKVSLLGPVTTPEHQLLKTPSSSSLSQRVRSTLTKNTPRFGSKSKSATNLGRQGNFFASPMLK
The assay is described as follows: MgcRacGAP GTPase-activating activity inhibitors, confirmation, biochemical, ADP Hunter fluorescence, primary and confirmatory (AID 624330). Format: functional.

The next assay deals with Jurkat. The assay is described as follows: antigen receptor-induced NF-kB inhibitors, dose response, Jurkat, luciferase reporter, luminescence, B- and T-cell (AID 489004).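 Note: NF-kB luciferase reporter Jurkat cells stimulated with PMA plus ionomycin.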 The class given is functional, cell-based. The settings on record: Homo sapiens.
Assay [17] can be described thus: cytotoxicity in HEK-293T NF-kB-Luc cells, dose response, cytotoxicity control for B/T-cell NF-kB inhibitor project, cell-based, uHTS hits (AID 489019).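 Note: IC50 reflects cytotoxicity as loss of cell viability.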 The class given is functional.
The target of assay [18] is T3, Histone-lysine N-methyltransferase NSD2 (Homo sapiens, UniProt O96028).
T3 sequence (O96028 whole entry): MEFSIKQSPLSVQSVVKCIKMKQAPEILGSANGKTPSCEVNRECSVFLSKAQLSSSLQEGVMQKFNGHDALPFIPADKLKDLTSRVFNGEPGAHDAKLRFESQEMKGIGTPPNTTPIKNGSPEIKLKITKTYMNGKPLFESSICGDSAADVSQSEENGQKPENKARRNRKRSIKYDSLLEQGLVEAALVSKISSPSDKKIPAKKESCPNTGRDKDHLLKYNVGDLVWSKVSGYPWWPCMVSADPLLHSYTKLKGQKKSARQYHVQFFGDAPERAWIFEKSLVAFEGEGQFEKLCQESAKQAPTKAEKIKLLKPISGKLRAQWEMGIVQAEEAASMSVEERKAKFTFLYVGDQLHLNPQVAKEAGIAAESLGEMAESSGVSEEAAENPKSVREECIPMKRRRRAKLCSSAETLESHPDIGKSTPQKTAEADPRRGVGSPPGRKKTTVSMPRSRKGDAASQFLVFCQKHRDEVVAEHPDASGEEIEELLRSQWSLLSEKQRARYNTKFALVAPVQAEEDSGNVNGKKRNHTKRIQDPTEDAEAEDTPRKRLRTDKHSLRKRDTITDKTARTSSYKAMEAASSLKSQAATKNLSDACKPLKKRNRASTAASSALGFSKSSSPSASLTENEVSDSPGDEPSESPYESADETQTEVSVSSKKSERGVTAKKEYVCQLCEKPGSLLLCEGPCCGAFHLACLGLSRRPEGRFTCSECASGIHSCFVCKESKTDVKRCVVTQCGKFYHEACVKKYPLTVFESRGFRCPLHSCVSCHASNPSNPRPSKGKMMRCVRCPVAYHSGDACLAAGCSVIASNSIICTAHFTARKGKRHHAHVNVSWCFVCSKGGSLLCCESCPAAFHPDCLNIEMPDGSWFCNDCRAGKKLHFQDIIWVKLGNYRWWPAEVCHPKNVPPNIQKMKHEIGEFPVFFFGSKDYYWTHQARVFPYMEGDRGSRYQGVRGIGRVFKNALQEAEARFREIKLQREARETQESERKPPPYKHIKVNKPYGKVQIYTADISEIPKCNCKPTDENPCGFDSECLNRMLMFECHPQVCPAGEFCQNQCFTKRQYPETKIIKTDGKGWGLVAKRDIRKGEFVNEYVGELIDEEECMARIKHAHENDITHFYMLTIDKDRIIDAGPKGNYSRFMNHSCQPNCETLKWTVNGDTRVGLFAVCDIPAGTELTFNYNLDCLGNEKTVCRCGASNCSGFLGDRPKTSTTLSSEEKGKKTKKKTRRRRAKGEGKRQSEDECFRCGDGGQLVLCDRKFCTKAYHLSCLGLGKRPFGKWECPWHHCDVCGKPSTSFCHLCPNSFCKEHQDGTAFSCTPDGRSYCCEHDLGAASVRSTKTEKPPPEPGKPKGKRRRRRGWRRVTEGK
Format: biochemical.

Assay [19] addresses Bifunctional protein GlmU (Mycobacterium tuberculosis, UniProt P9WMN3). The assay is described as follows: Inhibitors of Mycobacterial Glucosamine-1-phosphate acetyl transferase (GlmU). Secondary screen. Details: species or system Mycobacterium tuberculosis H37Rv.
The target of assay [20] is Neurotensin receptor type 1 (Homo sapiens, UniProt P30989). The class given is functional.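 Note: Image-based confirmatory dose-response assay measuring agonist activity at NTR1; NTR1-expressing U2OS osteosarcoma cells imaged for beta-arrestin GFP spot formation; agonist potency where compounds increase beta-arrestin recruitment.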
In assay [21] the target is Lysine-specific demethylase 4C (Homo sapiens, UniProt Q9H3R0). In words: GASC-1 (JMJD2C) histone demethylase inhibitors, dose response, biochemical, DELFIA europium, cherry-picked samples (AID 488835). Format: functional.
In a further assay the target is Genome polyprotein (dengue virus type 2, UniProt P29990). In words: Dengue-2 NS5 methyltransferase inhibitors, primary screen, biochemical, confirmation dose response (AID 588689). The class given is functional.

A word on the AC50: it is the concentration at which the activity in the assay is half-maximal. One may read the IC50 as the concentration needed to halve the response being measured. What is called EC50 is the midpoint of the concentration-response curve. The CC50 is the concentration at which the toxic effect on the cells reaches its halfway point.

Activity calls are given as the source filed them. Some results are limits rather than exact numbers.

UDP-galactopyranose mutase, sequence (P9WIQ1 whole entry): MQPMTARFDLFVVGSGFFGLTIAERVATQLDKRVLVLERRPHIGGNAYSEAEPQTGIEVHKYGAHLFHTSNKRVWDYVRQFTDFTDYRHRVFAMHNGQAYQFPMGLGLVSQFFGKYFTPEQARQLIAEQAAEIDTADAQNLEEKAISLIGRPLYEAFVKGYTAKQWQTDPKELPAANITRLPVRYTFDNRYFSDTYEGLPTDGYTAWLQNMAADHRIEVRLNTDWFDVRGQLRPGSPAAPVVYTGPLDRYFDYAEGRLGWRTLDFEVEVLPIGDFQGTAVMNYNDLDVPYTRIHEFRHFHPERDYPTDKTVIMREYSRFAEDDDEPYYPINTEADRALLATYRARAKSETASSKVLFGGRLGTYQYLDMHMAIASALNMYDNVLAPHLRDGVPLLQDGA
Neurotensin receptor type 1, sequence (P30989 whole entry): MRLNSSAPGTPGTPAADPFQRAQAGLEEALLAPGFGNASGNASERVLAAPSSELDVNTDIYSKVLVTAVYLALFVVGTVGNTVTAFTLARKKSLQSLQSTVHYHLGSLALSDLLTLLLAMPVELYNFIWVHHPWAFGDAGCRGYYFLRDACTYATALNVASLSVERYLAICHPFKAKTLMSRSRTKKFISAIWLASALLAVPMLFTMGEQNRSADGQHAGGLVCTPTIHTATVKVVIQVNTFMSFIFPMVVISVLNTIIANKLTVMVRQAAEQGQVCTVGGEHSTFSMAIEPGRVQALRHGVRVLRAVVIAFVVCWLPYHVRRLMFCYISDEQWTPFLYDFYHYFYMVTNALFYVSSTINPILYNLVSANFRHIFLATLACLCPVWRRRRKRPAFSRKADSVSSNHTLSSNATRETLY
Genome polyprotein, sequence (P29990 2492-3391 limits assumed): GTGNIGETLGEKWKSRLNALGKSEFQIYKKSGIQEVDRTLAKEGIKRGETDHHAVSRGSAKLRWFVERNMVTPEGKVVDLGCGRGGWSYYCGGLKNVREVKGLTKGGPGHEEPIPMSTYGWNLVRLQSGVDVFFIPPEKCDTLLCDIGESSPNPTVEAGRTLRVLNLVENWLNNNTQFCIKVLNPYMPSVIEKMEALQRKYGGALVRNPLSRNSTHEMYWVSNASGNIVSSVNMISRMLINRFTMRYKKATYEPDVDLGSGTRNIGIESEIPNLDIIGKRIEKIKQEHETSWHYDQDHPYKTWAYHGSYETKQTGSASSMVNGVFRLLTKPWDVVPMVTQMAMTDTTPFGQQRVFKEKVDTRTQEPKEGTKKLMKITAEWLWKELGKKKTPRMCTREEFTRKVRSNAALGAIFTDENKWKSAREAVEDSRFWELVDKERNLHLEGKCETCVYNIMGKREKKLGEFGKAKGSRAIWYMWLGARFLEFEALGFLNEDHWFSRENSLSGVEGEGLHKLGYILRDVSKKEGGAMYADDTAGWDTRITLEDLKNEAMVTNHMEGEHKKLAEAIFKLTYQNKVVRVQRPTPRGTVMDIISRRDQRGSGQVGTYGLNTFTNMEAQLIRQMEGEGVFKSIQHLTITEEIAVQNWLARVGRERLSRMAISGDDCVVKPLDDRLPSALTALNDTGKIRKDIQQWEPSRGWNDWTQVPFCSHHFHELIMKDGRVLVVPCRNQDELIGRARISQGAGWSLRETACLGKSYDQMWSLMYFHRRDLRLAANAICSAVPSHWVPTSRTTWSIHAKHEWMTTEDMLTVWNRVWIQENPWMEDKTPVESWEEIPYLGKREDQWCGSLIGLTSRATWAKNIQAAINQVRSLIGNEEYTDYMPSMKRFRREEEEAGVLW
Induced myeloid leukemia cell differentiation protein Mcl-1, sequence (Q07820 whole entry): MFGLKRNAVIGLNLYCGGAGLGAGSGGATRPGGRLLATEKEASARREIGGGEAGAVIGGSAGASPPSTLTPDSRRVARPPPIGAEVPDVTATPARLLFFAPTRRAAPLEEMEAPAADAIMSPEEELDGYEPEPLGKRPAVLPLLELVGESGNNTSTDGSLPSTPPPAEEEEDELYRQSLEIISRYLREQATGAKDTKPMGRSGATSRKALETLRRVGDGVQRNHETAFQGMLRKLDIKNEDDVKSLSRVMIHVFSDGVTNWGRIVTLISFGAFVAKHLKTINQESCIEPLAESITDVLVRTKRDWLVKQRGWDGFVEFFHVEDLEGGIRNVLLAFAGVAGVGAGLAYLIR
Bifunctional protein GlmU, sequence (P9WMN3 whole entry): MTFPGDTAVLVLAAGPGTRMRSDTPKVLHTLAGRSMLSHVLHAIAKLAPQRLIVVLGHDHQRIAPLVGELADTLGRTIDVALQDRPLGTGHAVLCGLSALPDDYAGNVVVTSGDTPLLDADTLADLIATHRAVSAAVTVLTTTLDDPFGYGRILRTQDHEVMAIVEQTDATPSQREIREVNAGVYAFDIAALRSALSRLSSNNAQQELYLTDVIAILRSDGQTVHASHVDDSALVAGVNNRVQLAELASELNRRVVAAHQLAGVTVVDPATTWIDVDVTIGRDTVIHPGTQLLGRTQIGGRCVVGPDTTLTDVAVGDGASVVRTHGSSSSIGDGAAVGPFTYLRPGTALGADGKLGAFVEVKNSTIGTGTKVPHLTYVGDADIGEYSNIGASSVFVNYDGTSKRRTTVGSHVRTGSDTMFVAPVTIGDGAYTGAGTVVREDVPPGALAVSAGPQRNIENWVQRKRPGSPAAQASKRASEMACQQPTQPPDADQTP
Lysine-specific demethylase 4C, sequence (Q9H3R0 whole entry): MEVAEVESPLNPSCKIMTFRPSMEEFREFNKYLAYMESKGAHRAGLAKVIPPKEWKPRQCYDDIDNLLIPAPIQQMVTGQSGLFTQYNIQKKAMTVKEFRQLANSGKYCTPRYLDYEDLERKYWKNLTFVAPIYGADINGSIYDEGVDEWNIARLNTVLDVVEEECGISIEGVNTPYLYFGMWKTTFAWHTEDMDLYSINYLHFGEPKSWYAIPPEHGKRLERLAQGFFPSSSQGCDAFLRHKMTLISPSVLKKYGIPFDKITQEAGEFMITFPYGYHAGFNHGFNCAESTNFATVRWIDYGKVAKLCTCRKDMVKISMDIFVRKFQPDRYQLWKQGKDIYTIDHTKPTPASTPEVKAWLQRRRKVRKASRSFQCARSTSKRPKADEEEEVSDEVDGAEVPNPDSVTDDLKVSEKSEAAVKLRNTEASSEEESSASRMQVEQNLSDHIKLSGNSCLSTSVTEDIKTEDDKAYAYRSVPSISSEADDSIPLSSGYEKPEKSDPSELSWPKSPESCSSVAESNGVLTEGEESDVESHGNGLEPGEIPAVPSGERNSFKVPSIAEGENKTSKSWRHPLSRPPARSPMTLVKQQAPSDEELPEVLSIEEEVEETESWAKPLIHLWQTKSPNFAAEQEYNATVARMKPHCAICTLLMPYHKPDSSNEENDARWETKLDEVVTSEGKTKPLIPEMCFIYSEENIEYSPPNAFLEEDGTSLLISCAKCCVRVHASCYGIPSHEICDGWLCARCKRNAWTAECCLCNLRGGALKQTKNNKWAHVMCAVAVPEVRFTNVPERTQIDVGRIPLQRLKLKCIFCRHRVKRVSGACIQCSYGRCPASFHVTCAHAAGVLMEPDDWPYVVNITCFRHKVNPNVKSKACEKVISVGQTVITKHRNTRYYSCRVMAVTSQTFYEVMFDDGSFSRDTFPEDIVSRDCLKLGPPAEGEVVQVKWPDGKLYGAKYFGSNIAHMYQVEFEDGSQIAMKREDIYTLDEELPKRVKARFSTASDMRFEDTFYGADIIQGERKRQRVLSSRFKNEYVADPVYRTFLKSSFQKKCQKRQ

On to `COc1ccc(N=C(S)N(C)N=C(S)Nc2ccc(OC)cc2)cc1`, for which the AC50 was 16.3 µM (active) in [1] and 22 µM (active) in assay [2].
Consider `COc1ccc(O)c(/C=N/Nc2nc(Nc3ccccc3)nc(-n3nc(C)cc3C)n2)c1`, for which the figures for the IC50 (in [3]; in assay [5]; in the assay with Vero [7]) were 1.67 µM (active), 0.878 µM (active) and > 12.5 µM (active), respectively. Moreover, the half-maximal effective concentration (EC50) is 1.07 µM (active) in assay [4], 2.16 µM (active) in the assay with Streptococcus, > 59.6 µM (inactive) in the assay on HEK293 [9] and > 59.6 µM (inactive) in the assay on HEK293 [10]. Moreover, the concentration at half-maximal activity (AC50) in assay [1] was 4.75 µM (active); in the assay with HEK293 [6] it was 10.7 µM (active); with INS1, 1.01 µM (active). In addition, the cytotoxic concentration (CC50) in the assay with Vero [8] was 11.8 µM (active).
With `Oc1[nH]c2ccc(Br)cc2c1N=Nc1ccc(F)cc1`, the results for the EC50 in assay [11] and in [13] were > 99 µM (inactive) and 45.8 µM (inactive), respectively. Besides, the AC50 in assay [12] was 91.6 µM (active).
Take `O=c1oc2ccccc2cc1-c1csc(Nc2ccc(O)cc2)n1`: the cytotoxic concentration (CC50) in assay [14] is > 50 µM (active). Moreover, the half-inhibitory concentration (IC50) in assay [3] is 2.81 µM (active); in assay [5], 4.07 µM (active); in [15], 2.76 µM (active); in assay [16], 70.1 µM (active). Also, the EC50 in assay [11] and in [13] was > 99 µM (inactive) each time.
Consider `CCCOc1ccc(C(=O)N2CCN(c3ccc(N)cc3Cl)CC2)cc1`, for which the AC50 in assay [1] is 10.1 µM (active); in assay [2], 47.8 µM (active).
As for `CC(C)(O)c1[nH]c2ccc(C#N)cc2c1C(C)(C)O`, the IC50 (in the assay on Jurkat; in assay [17]) was > 80 µM (inactive) each time.
On to `COc1ccc(-n2c(C)ccc2-c2ccccc2)cn1`, for which the half-maximal activity concentration (AC50) in [12] was 58 µM (active); in assay [18], > 20 µM (inactive).
Turning to `O=C1NC(=O)C(=Cc2ccc(Sc3ccccc3)o2)C(=O)N1`, the values for the IC50 (in assay [19]; on Genome polyprotein) were 369 µM (active) and > 100 µM (active), respectively. Besides, the EC50 in [20] was 11.2 µM (active). Moreover, the concentration at half-maximal activity (AC50) in [21] is 10.6 µM (active).

The values above are taken from ChEMBL document CHEMBL1201862, “PubChem BioAssay data set” (2004).
